Where two headings read alike, the source gives them in different places. Each block holds one compound with its values, some of them ahead of it.
Legend:
[1] = system: S6RP (S235/236); assay: Phospho-S6RP (S235/S236) in PC-3 cell lysates, MSD (Compound 2); type: cell-based; details: Homo sapiens; PC-3, 1 hour; read-out: mTORC1 S6RP (S235/236) IC50
[2] = system: GSK3β (S9); assay: Phospho-GSK3Beta (S9) in PC-3 cell lysates, MSD (Compound 2); type: cell-based; details: Homo sapiens; PC-3, 1 hour; read-out: mTORC2 GSK3β (S9) IC50
Method: The direct substrate for mTORC1 was 4E-BP1(T46) and the indirect downstream substrate was S6RP (S235/S236). The direct substrate for mTORC2 was AKT (S473) and the indirect downstream substrates measured were GSK3β(S9) and PRAS40 (T246). Additionally, the phosphorylation status of AKT (T308), a phosphorylation site for PDK1, was monitored. Concentration-response curves were plotted and IC50 values determined. Cells were plated in 96-well flat bottom plates at the required density (PC-3 cells/well) and the cells were allowed to equilibrate at 37° C., 5% CO2 overnight. […] After the incubation period, the culture media was removed carefully with an aspirator. The plate was placed on ice and 50 μL of 1× Tris Lysis Buffer was added to each well. The plate was placed on a shaker at 4° C. for 1 hour to lyse the cells. At that point, the plate was either frozen at -80° C. for later analysis or immediately assayed for phosphoproteins as described below. To monitor interassay variability, a reference standard was included in the assay for PC-3 cells and the coefficient of variation for assay of […]) was 9.3% (n=50) and for assay of p-AKT (S473) was 28.6% (n=50). The assay plate was incubated with 150 μL of MSD Blocking Buffer for 1 hour with shaking at room temperature. […] Then 150 μL of 1×MSD Read Buffer T was added to each well. The plate was read on the SECTOR Imager plate reader.

[3] = Compound 2 concentrations in plasma by LC-MS/MS; type: in vivo, SCID mice; details: for concentration at 0.5 h / concentration at 1 h / concentration at 3 h / concentration at 6 h / concentration at 10 h / concentration at 24 h / AUC(0-t): female, SCID, mouse, plasma; for concentration at 0.5 h / concentration at 1 h / concentration at 3 h / concentration at 6 h / concentration at 10 h / concentration at 24 h: oral; for AUC(0-t): po
[4] = Body weight in Compound 1 PC3 xenograft efficacy studies; type: in vivo, SCID mice
Method: The BID dose groups were dosed with a 10-hour separation between the morning and evening doses. […] At the end of each study, plasma and/or tumor samples were collected.
Initial body weights were recorded prior to the initiation of treatment using a digital scale. The percent body weight change during the course of the study was calculated using initial body weight measurements. Body weights of each animal were measured twice a week at the same time that tumor measurements were taken. Body weights were measured more frequently if significant decreases were noted during the course of the study.

[5] = system: PC3 tumors; assay: Apoptosis TUNEL assay in PC3 tumors (Compound 1, rapamycin); type: in vivo, SCID mice; details: 25 mg/kg oral QD for 6 days, 2 hours after last dose
Method: (§1) Two hours after the last dose of either vehicle, Compound 1, or rapamycin, the mice were euthanized and the tumors were dissected. The tumors were snap frozen in liquid nitrogen and processed for immunohistochemistry (IHC) and TUNEL.
To detect the apoptotic cells, fluorescence in situ cell death detection kit (Roche Biosciences) was used. Five to ten micron thick cryostat sections were fixed in 4% paraformaldehyde for 15 minutes at room temperature, washed, permeabilized with 0.3% triton X-100 and 0.1% sodium citrate in PBS for 10 minutes. Sections were then washed in PBS and incubated with a labeling solution containing TdT enzyme for 1 hour at 37° C. in the dark. The sections were washed in PBS, counterstained with Hoechst dye (0.4 μg/mL) at room temperature for 10 minutes and mounted in Prolong Gold antifade reagent.
(§2) The tissues sections processed for apoptosis or immunostained for proliferating cells (Ki-67) or blood vessels were quantitated using Metamorph software. Using 20× objective, 5 different fields from each section, 2 to 4 sections from each tumor, and 3 to 4 tumors from each treatment group or control were used for quantitation. The area of interest was expressed as the percent threshold area of the total area.

[6] = system: Ki-67; assay: Ki-67 immunohistochemistry in PC3 tumors (Compound 1); type: in vivo, SCID mice; details: 25 mg/kg oral QD for 6 days, 2 hours after last dose
Method: as §1
Five to ten micron thick cryostat sections of tumor samples were used for IHC. The expression of a cell proliferation marker Ki-67 was evaluated by IHC using anti-Ki-67 antibody. Anti-CD-31 antibody was used to determine blood vessel density and is a measurement of tumor angiogenesis. Frozen sections were fixed in 4% paraformaldehyde for 10 minutes at room temperature, washed in PBS, blocked and permeabilized with normal goat serum and triton x-100. Sections were then incubated with primary antibody (overnight) followed by incubation with secondary antibody (60 minutes). […] The sections were visualized with a Nikon E800 microscope equipped with fluorescence detection equipment and a digital camera attached to a computer.
as §2

IC50 [1]: 23 ± 7 nM | IC50 [2]: 17 nM | Plasma Compound 2 Concentration (μM) Mean ± SEM ([3]; 0.1 mg/kg single oral dose, 24 h): BLQ | Plasma Concentration (μM) Mean ± SEM ([3]; 2 mg/kg QD, 10 h after last dose): 0.21 ± 0.05 µM | concentration at 0.5 h ([3]; 0.1 mg/kg, Plasma Compound 2 Concentration (μM) Mean ± SEM, 0.1 mg/kg single oral dose): 0.05 µM | concentration at 1 h ([3]; 0.1 mg/kg, Plasma Compound 2 Concentration (μM) Mean ± SEM, 0.1 mg/kg single oral dose, 1 h): 0.04 µM | concentration at 3 h ([3]; 0.1 mg/kg, Plasma Compound 2 Concentration (μM) Mean ± SEM, 0.1 mg/kg single oral dose, 3 h): 0.02 µM | concentration at 6 h ([3]; 0.1 mg/kg, Plasma Compound 2 Concentration (μM) Mean ± SEM, 0.1 mg/kg single oral dose, 6 h): 0.02 µM | concentration at 10 h ([3]; 0.1 mg/kg, Plasma Compound 2 Concentration (μM) Mean ± SEM, 0.1 mg/kg single oral dose, 10 h): 0.01 µM | concentration at 0.5 h ([3]; 0.3 mg/kg, Plasma Compound 2 Concentration (μM) Mean ± SEM, 0.3 mg/kg single oral dose): 0.16 ± 0.03 µM | concentration at 1 h ([3]; 0.3 mg/kg, Plasma Compound 2 Concentration (μM) Mean ± SEM, 0.3 mg/kg single oral dose, 1 h): 0.16 ± 0.01 µM | concentration at 3 h ([3]; 0.3 mg/kg, Plasma Compound 2 Concentration (μM) Mean ± SEM, 0.3 mg/kg single oral dose, 3 h): 0.07 ± 0.01 µM | concentration at 6 h ([3]; 0.3 mg/kg, Plasma Compound 2 Concentration (μM) Mean ± SEM, 0.3 mg/kg single oral dose, 6 h): 0.07 ± 0.01 µM | concentration at 10 h ([3]; 0.3 mg/kg, Plasma Compound 2 Concentration (μM) Mean ± SEM, 0.3 mg/kg single oral dose, 10 h): 0.04 ± 0.01 µM | concentration at 24 h ([3]; 0.3 mg/kg, Plasma Compound 2 Concentration (μM) Mean ± SEM, 0.3 mg/kg single oral dose, 24 h): 0 µM | concentration at 1 h ([3]; 1 mg/kg, 1 mg/kg BID, 1 h after last dose, read-out: Plasma Concentration (μM) Mean ± SEM): 0.73 ± 0.14 µM | concentration at 3 h ([3]; 1 mg/kg, 1 mg/kg BID, 3 h after last dose, read-out: Plasma Concentration (μM) Mean ± SEM): 0.48 ± 0.04 µM | concentration at 6 h ([3]; 1 mg/kg, 1 mg/kg BID, 6 h after last dose, read-out: Plasma Concentration (μM) Mean ± SEM): 0.22 ± 0.04 µM | concentration at 10 h ([3]; 1 mg/kg, 1 mg/kg BID, 10 h after last dose, read-out: Plasma Concentration (μM) Mean ± SEM): 0.11 ± 0.01 µM | concentration at 24 h ([3]; 1 mg/kg, 1 mg/kg BID, 24 h after last dose, read-out: Plasma Concentration (μM) Mean ± SEM): 0.02 µM | concentration at 10 h ([3]; 1 mg/kg, 1 mg/kg single dose, read-out: plasma concentration at which pS6RP and pAKT (S473) were inhibited through 10 hours): 0.12 ± 0.003 µM | concentration at 1 h ([3]; 1 mg/kg, Plasma Compound 2 Concentration (μM) Mean ± SEM, 1 mg/kg single oral dose, 1 h): 0.53 ± 0.02 µM | concentration at 3 h ([3]; 1 mg/kg, Plasma Compound 2 Concentration (μM) Mean ± SEM, 1 mg/kg single oral dose, 3 h): 0.34 ± 0.01 µM | concentration at 6 h ([3]; 1 mg/kg, Plasma Compound 2 Concentration (μM) Mean ± SEM, 1 mg/kg single oral dose, 6 h): 0.13 ± 0.01 µM | concentration at 10 h ([3]; 1 mg/kg, Plasma Compound 2 Concentration (μM) Mean ± SEM, 1 mg/kg single oral dose, 10 h): 0.12 µM | concentration at 24 h ([3]; 1 mg/kg, Plasma Compound 2 Concentration (μM) Mean ± SEM, 1 mg/kg single oral dose, 24 h): 0.005 µM | concentration at 1 h ([3]; 2 mg/kg, 2 mg/kg QD, 1 h after last dose, read-out: Plasma Concentration (μM) Mean ± SEM): 1.02 ± 0.2 µM | concentration at 3 h ([3]; 2 mg/kg, 2 mg/kg QD, 3 h after last dose, read-out: Plasma Concentration (μM) Mean ± SEM): 0.59 ± 0.08 µM | concentration at 6 h ([3]; 2 mg/kg, 2 mg/kg QD, 6 h after last dose, read-out: Plasma Concentration (μM) Mean ± SEM): 0.27 ± 0.08 µM | concentration at 10 h ([3]; 2 mg/kg, 2 mg/kg QD, 10 h after last dose, read-out: Plasma Concentration (μM) Mean ± SEM): 0.21 µM | concentration at 24 h ([3]; 2 mg/kg, 2 mg/kg QD, 24 h after last dose, read-out: Plasma Concentration (μM) Mean ± SEM): 0.02 ± 0.01 µM | concentration at 24 h ([3]; 5 mg/kg, Compound 2 in the plasma, efficacy study, 5 mg/kg QD, 24 hours after the last dose): 0.13 µM | concentration at 1 h ([3]; 10 mg/kg, Plasma Compound 2 Concentration (μM) Mean ± SEM, 10 mg/kg single oral dose, 1 h): 6.78 ± 1.16 µM | concentration at 3 h ([3]; 10 mg/kg, Plasma Compound 2 Concentration (μM) Mean ± SEM, 10 mg/kg single oral dose, 3 h): 5.69 ± 0.96 µM | concentration at 6 h ([3]; 10 mg/kg, Plasma Compound 2 Concentration (μM) Mean ± SEM, 10 mg/kg single oral dose, 6 h): 2.1 ± 0.22 µM | concentration at 10 h ([3]; 10 mg/kg, Plasma Compound 2 Concentration (μM) Mean ± SEM, 10 mg/kg single oral dose, 10 h): 1.18 ± 0.2 µM | concentration at 24 h ([3]; 10 mg/kg, Plasma Compound 2 Concentration (μM) Mean ± SEM, 10 mg/kg single oral dose, 24 h): 0.8 ± 0.09 µM | AUC(0-t) ([3]; 0.5 mg/kg, 0.5 mg/kg BID, after last dose, read-out: total plasma AUC0-10 h): 1.42 µM·h | AUC(0-t) ([3]; 1 mg/kg, 1 mg/kg BID, after last dose, read-out: total plasma AUC0-10 h): 3.27 µM·h | AUC(0-t) ([3]; 1 mg/kg, 1 mg/kg QD (BID/QD study), read-out: total plasma AUC0-24 h): 2.95 µM·h | AUC(0-t) ([3]; 1 mg/kg, 1 mg/kg QD, last day, read-out: total plasma AUC0-24 h): 2.33 µM·h | AUC(0-t) ([3]; 2 mg/kg, 2 mg/kg QD, last day, read-out: total plasma AUC0-24 h): 5.93 µM·h | AUC(0-t) ([3]; 5 mg/kg, 5 mg/kg QD, last day, read-out: total plasma AUC0-24 h): 17 µM·h
SMILES: CCN1C(=O)CNc2ncc(-c3ccc(-c4nc[nH]n4)nc3C)nc21 [Compound 2, 1-ethyl-7-(2-methyl-6-(1H-1,2,4-triazol-3-yl)pyridin-3-yl)-3,4-dihydropyrazino[2,3-b]pyrazin-2(1H)-one]

SMILES: CO[C@H]1CC[C@H](N2C(=O)CNc3ncc(-c4ccc(C(C)(C)O)nc4)nc32)CC1 [Compound 1, 7-(6-(2-hydroxypropan-2-yl)pyridin-3-yl)-1-((1r,4r)-4-methoxycyclohexyl)-3,4-dihydropyrazino-[2,3-b]pyrazin-2(1H)-one]
change in body weight ([4]; 10 mg/kg QD, 3 weeks, data not shown): No significant change | loss of initial body mass ([4]; 25 mg/kg QD, end of the first cycle): approximately 10% | body weight loss ([4]; 25 mg/kg QD, intermittent dosing study period): about 10% | body weight change ([4]; 25 mg/kg QD, second dosing cycle): about 5% | loss of initial body weight ([4]; regression study, 25 mg/kg QD, by Day 26, euthanized): over 19% | TUNEL-positive cells compared with the vehicle control [5]: about a two fold increase | reduction in the number of proliferating cells (Ki-67) vs vehicle [6]: 84%

From patent US20140113904A1, “TREATMENT OF CANCER WITH TOR KINASE INHIBITORS” (SIGNAL PHARMACEUTICALS, LLC, priority 2012, published 2014)
